Test results: patent US9021738B2, “Control of termites, fire ants and carpenter ants” (priority 2008, dated 2015)
Where two headings read alike, the source gives them in different places.

How the values were obtained:
[1] = system: Formosan subterranean termites; assay type: in vivo, Coptotermes formosanus; details: for termites killed: 25 mg/liter volume
Protocol: (§1) Formosan subterranean termites were collected from bucket traps placed in City Park, New Orleans, La. Altogether five colonies designated 1314, 1559, 1732, 1743 and 1756 were used in the tests. After collection, the termites (primarily workers and soldiers) were transferred to plastic boxes with moist spruce slats. The boxes were stored in an incubator maintained at 28° C., 65% RH, and constant darkness. Termites were used within one month of their collection.
(§2) Vapor Toxicity Under Subterranean Conditions. This test was also conducted in the one liter Qorpak™ bottles. A 35 by 40 by 7 mm piece of moist spruce was placed at the bottom of the bottle and covered with 40 g fine-sifted black soil. One hundred termite workers were released into each bottle and allowed to tunnel under the soil and into the wood. After 3 days, a test chemical was applied to a filter paper and suspended from the cap-liner. The chemicals were tested at 10, 25 and 50 mg. […] The test was conducted with termites from 3 colonies and replicated 3 times.
Because in their natural environment the subterranean termites are not expected to be exposed to a chemical in open space, we conducted the next test by placing 100 workers termites in spruce slats covered with a layer of soil, all placed in the same glass bottles. Tests were conducted at 25 mg dose. After 2 days tetrahydrocarvone (both d- and l-isomers) caused 100% mortality.

drywood termites = details: Petri dish assays, as claimed in prior art; cited from earlier work
carpenter ants = assay: Sealed jar test on carpenter ants; assay type: in vivo, Camponotus chromaoides; details: one drop (approximately 30 mg) on filter paper in sealed 16 oz jar, within 24 hours
Protocol: One drop (approximately 30 mg) of tetrahydro l-carvone test compound was applied to filter paper within a sealed jar (16 oz glass jar, 3½ inch diameter, 3⅞ inch high with plastic lids) containing ten carpenter (Camponotus chromaoides) ants per replicate with there being five replicates. Five negative controls with no test compounds were also run. The tetrahydro-1-carvone provided 100% mortality to the carpenter ants within 24 hours while the control produced 6% mortality over the same 24 hour period.

[2] = system: Formosan subterranean termites; assay: Assay for Vapor Toxicity; assay type: in vivo, Coptotermes formosanus
Protocol: as §1
Assay for Vapor Toxicity. This test was conducted in 960 ml wide-mouth clear Qorpak™ (All-Pak, Inc.) bottles with PTFE lined caps. A 60 mm diameter glass Petri dish with a moist filter paper and 50 termite workers was placed at the bottom of each bottle. The test chemical was applied to a 1 cm diameter filter paper and suspended with an insect pin from the cap-liner. Each chemical was initially tested at 1 mg in the one liter bottle then at 0.1 and 0.5 mg. Since 0.1 and 0.5 mg doses caused very low and 100% mortality respectively, the final test was carried out at 0.25 mg. Each chemical was tested with different termite colonies and replicated three times. The bottles were placed in the incubator. Mortality was recorded after 1, 2 and 3 days by quickly taking the glass Petri dish with the termites out of the bottle (with a pair of long forceps) and replacing it after removing the dead workers.

fire ants = assay: Vapor Toxicity Under Subterranean Conditions with fire ants; assay type: in vivo, Solenopsis invicta; details: 25 mg, in 24 hours
Protocol: as §2
The same Vapor Toxicity Under Subterranean Conditions test as described in paragraph [0023] was conducted except that fire ants were employed instead of termites.

Structure (SMILES) | efficacy against termites in soil and wood [1] | mortality of drywood and other termites (drywood termites) | further results
CC(C)=CCCC(C)CC=O (stereo not shown) [citronellal] | totally ineffective | high mortality | 
CC(C)[C@@H]1CC[C@@H](C)C(=O)C1 [tetrahydro-l-carvone] |  |  | mortality to carpenter ants (carpenter ants): 100%; termites killed ([2]; 1 mg per liter volume, in 1 day): 100%; termites killed ([1]; in 24 hrs): 100%
CC(C)[C@@H]1CC[C@@H](C)C(=O)C1 [tetrahydrocarvone] |  |  | mortality ([1]; 25 mg dose, after 2 days, 100 worker termites in spruce slats covered with soil): 100%
CC(C)=CCC/C(C)=C/CO [geraniol] | totally ineffective | high mortality | 
C=C(C)[C@@H]1CC[C@@H](C)C(=O)C1 [dihydro-l-carvone] |  |  | termites killed ([1]; in 48 hours): 100%
C=C(C)C1CC=C(C)[C@@H](O)C1 (stereo partly shown) [carveol] | totally ineffective | high mortality | 
Cc1ccc(C(C)C)cc1 [p-cymene] | totally ineffective | high mortality | 
CC(C)[C@@H]1CC[C@@H](C)C(=O)C1 [tetrahydro-d-carvone] |  |  | fire ants killed (fire ants): 100%; termites killed ([2]; 0.25 mg/liter volume, in 3 days): 75%; termites killed ([2]; 0.5 mg/liter volume, in 1 day): 100%
